PubChem BioAssay (NCI)
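Exposure lasted 48 hours, with cells grown in 96-well plates and compounds tested at five concentrations. Definition used: TGI = concentration required for complete inhibition of growth.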

Experiments:
Experiment in all cases: DTP human tumour cell line panel, 48 h
M14 melanoma = test system: M14 melanoma
HCT-116 colon = test system: HCT-116 colon
HT29 colon = test system: HT29 colon
SK-MEL-2 melanoma = test system: SK-MEL-2 melanoma
HCT-15 colon = test system: HCT-15 colon
ACHN renal = test system: ACHN renal
T-47D breast = test system: T-47D breast
UO-31 renal = test system: UO-31 renal
HS 578T breast = test system: HS 578T breast
RPMI-8226 leukemia = test system: RPMI-8226 leukemia
MALME-3M melanoma = test system: MALME-3M melanoma
A549 NSCLC = test system: A549 NSCLC
EKVX NSCLC = test system: EKVX NSCLC
SN12C renal = test system: SN12C renal
MDA-MB-435 = test system: MDA-MB-435
NCI-H522 lung = test system: NCI-H522 lung
MCF7 breast = test system: MCF7 breast
NCI-H460 lung = test system: NCI-H460 lung
UACC-257 melanoma = test system: UACC-257 melanoma
LOX IMVI melanoma = test system: LOX IMVI melanoma
SR leukemia = test system: SR leukemia
PC-3 prostate = test system: PC-3 prostate
OVCAR-5 ovarian = test system: OVCAR-5 ovarian
786-0 renal = test system: 786-0 renal
RXF 393 renal = test system: RXF 393 renal
SF-295 CNS = test system: SF-295 CNS
NCI-H226 lung = test system: NCI-H226 lung
MDA-N = test system: MDA-N
SF-539 CNS = test system: SF-539 CNS
A498 renal = test system: A498 renal
SNB-19 CNS = test system: SNB-19 CNS
TK-10 renal = test system: TK-10 renal
IGROV1 ovarian = test system: IGROV1 ovarian
OVCAR-3 ovarian = test system: OVCAR-3 ovarian
SK-MEL-5 melanoma = test system: SK-MEL-5 melanoma
SW-620 colon = test system: SW-620 colon
OVCAR-4 ovarian = test system: OVCAR-4 ovarian
COLO 205 colon = test system: COLO 205 colon
UACC-62 melanoma = test system: UACC-62 melanoma
CCRF-CEM leukemia = test system: CCRF-CEM leukemia
SK-MEL-28 melanoma = test system: SK-MEL-28 melanoma
MOLT-4 leukemia = test system: MOLT-4 leukemia
K-562 leukemia = test system: K-562 leukemia
NCI-H23 lung = test system: NCI-H23 lung
HOP-62 NSCLC = test system: HOP-62 NSCLC
OVCAR-8 ovarian = test system: OVCAR-8 ovarian
HL-60(TB) leukemia = test system: HL-60(TB) leukemia
DU-145 prostate = test system: DU-145 prostate
MDA-MB-231 breast = test system: MDA-MB-231 breast
SF-268 CNS = test system: SF-268 CNS
NCI/ADR-RES ovarian = test system: NCI/ADR-RES ovarian
SNB-75 CNS = test system: SNB-75 CNS
HOP-92 NSCLC = test system: HOP-92 NSCLC
BT-549 breast = test system: BT-549 breast
HCC-2998 colon = test system: HCC-2998 colon
KM12 colon = test system: KM12 colon
U251 CNS = test system: U251 CNS
CAKI-1 renal = test system: CAKI-1 renal
SK-OV-3 ovarian = test system: SK-OV-3 ovarian
DLD-1 colon = test system: DLD-1 colon
KM20L2 colon = test system: KM20L2 colon
LXFL 529 NSCLC = test system: LXFL 529 NSCLC
HOP-18 NSCLC = test system: HOP-18 NSCLC
DMS 273 small cell lung = test system: DMS 273 small cell lung
SNB-78 CNS = test system: SNB-78 CNS
M19-MEL melanoma = test system: M19-MEL melanoma
DMS 114 small cell lung = test system: DMS 114 small cell lung

## O=C1N/C(=N\N=C\c2ccccc2)C(c2ccccc2)O1 (configuration not stated)
M14 melanoma
  TGI: > 100 µM
HCT-116 colon
  TGI: > 100 µM
HT29 colon
  TGI: > 100 µM
SK-MEL-2 melanoma
  TGI: > 100 µM
HCT-15 colon
  TGI: > 100 µM
ACHN renal
  TGI: > 100 µM
T-47D breast
  TGI: > 100 µM
UO-31 renal
  TGI: 33.5 µM
HS 578T breast
  TGI: > 100 µM
RPMI-8226 leukemia
  TGI: > 100 µM
MALME-3M melanoma
  TGI: > 100 µM
A549 NSCLC
  TGI: > 100 µM
EKVX NSCLC
  TGI: > 100 µM
SN12C renal
  TGI: > 100 µM
MDA-MB-435
  TGI: > 100 µM
NCI-H522 lung
  TGI: > 100 µM
MCF7 breast
  TGI: > 100 µM
NCI-H460 lung
  TGI: > 100 µM
UACC-257 melanoma
  TGI: > 100 µM
LOX IMVI melanoma
  TGI: > 100 µM
SR leukemia
  TGI: > 100 µM
PC-3 prostate
  TGI: > 100 µM
OVCAR-5 ovarian
  TGI: > 100 µM
786-0 renal
  TGI: > 100 µM
RXF 393 renal
  TGI: > 100 µM
SF-295 CNS
  TGI: > 100 µM
NCI-H226 lung
  TGI: > 100 µM
MDA-N
  TGI: > 100 µM
SF-539 CNS
  TGI: > 100 µM
A498 renal
  TGI: > 100 µM
SNB-19 CNS
  TGI: > 100 µM
TK-10 renal
  TGI: > 100 µM
IGROV1 ovarian
  TGI: > 100 µM
OVCAR-3 ovarian
  TGI: > 100 µM
SK-MEL-5 melanoma
  TGI: > 100 µM
SW-620 colon
  TGI: > 100 µM
OVCAR-4 ovarian
  TGI: > 100 µM
COLO 205 colon
  TGI: > 100 µM
UACC-62 melanoma
  TGI: > 100 µM
CCRF-CEM leukemia
  TGI: 49.4 µM
SK-MEL-28 melanoma
  TGI: > 100 µM
MOLT-4 leukemia
  TGI: > 100 µM
K-562 leukemia
  TGI: > 100 µM
NCI-H23 lung
  TGI: > 100 µM
HOP-62 NSCLC
  TGI: > 100 µM
OVCAR-8 ovarian
  TGI: > 100 µM
HL-60(TB) leukemia
  TGI: > 100 µM
DU-145 prostate
  TGI: > 100 µM
MDA-MB-231 breast
  TGI: > 100 µM
SF-268 CNS
  TGI: > 100 µM
NCI/ADR-RES ovarian
  TGI: > 100 µM
SNB-75 CNS
  TGI: 0.0124 µM
HOP-92 NSCLC
  TGI: > 100 µM
BT-549 breast
  TGI: > 100 µM
HCC-2998 colon
  TGI: > 100 µM
KM12 colon
  TGI: > 100 µM
U251 CNS
  TGI: > 100 µM
CAKI-1 renal
  TGI: > 100 µM
SK-OV-3 ovarian
  TGI: > 100 µM

## COC(=O)C(=O)Cc1nc2ccccc2s1
M14 melanoma
  TGI: > 100 µM
HCT-116 colon
  TGI: > 100 µM
HT29 colon
  TGI: > 100 µM
SK-MEL-2 melanoma
  TGI: > 100 µM
HCT-15 colon
  TGI: > 100 µM
ACHN renal
  TGI: > 100 µM
UO-31 renal
  TGI: > 100 µM
DLD-1 colon
  TGI: > 100 µM
MALME-3M melanoma
  TGI: > 100 µM
A549 NSCLC
  TGI: > 100 µM
EKVX NSCLC
  TGI: > 100 µM
SN12C renal
  TGI: > 100 µM
NCI-H522 lung
  TGI: > 100 µM
UACC-257 melanoma
  TGI: > 100 µM
LOX IMVI melanoma
  TGI: > 100 µM
SR leukemia
  TGI: > 100 µM
OVCAR-5 ovarian
  TGI: > 100 µM
786-0 renal
  TGI: > 100 µM
RXF 393 renal
  TGI: > 100 µM
SF-295 CNS
  TGI: > 100 µM
KM20L2 colon
  TGI: > 100 µM
NCI-H226 lung
  TGI: > 100 µM
SF-539 CNS
  TGI: > 100 µM
LXFL 529 NSCLC
  TGI: > 100 µM
A498 renal
  TGI: > 100 µM
SNB-19 CNS
  TGI: > 100 µM
HOP-18 NSCLC
  TGI: > 100 µM
TK-10 renal
  TGI: > 100 µM
IGROV1 ovarian
  TGI: > 100 µM
OVCAR-3 ovarian
  TGI: > 100 µM
SK-MEL-5 melanoma
  TGI: > 100 µM
SW-620 colon
  TGI: > 100 µM
OVCAR-4 ovarian
  TGI: > 100 µM
DMS 273 small cell lung
  TGI: > 100 µM
COLO 205 colon
  TGI: > 100 µM
UACC-62 melanoma
  TGI: > 100 µM
CCRF-CEM leukemia
  TGI: > 100 µM
SK-MEL-28 melanoma
  TGI: > 100 µM
SNB-78 CNS
  TGI: > 100 µM
MOLT-4 leukemia
  TGI: > 100 µM
K-562 leukemia
  TGI: > 100 µM
NCI-H23 lung
  TGI: > 100 µM
HOP-62 NSCLC
  TGI: > 100 µM
OVCAR-8 ovarian
  TGI: > 100 µM
HL-60(TB) leukemia
  TGI: > 100 µM
M19-MEL melanoma
  TGI: > 100 µM
SF-268 CNS
  TGI: > 100 µM
SNB-75 CNS
  TGI: > 100 µM
HOP-92 NSCLC
  TGI: > 100 µM
DMS 114 small cell lung
  TGI: > 100 µM
HCC-2998 colon
  TGI: > 100 µM
U251 CNS
  TGI: > 100 µM
CAKI-1 renal
  TGI: > 100 µM
SK-OV-3 ovarian
  TGI: > 100 µM

## CCCn1c2c(c3ccccc3c1=O)C(=O)c1ccccc1-2
M14 melanoma
  TGI: > 100 µM
HCT-116 colon
  TGI: > 100 µM
HT29 colon
  TGI: > 100 µM
SK-MEL-2 melanoma
  TGI: > 100 µM
HCT-15 colon
  TGI: > 100 µM
ACHN renal
  TGI: > 100 µM
T-47D breast
  TGI: > 100 µM
UO-31 renal
  TGI: > 100 µM
HS 578T breast
  TGI: > 100 µM
RPMI-8226 leukemia
  TGI: > 100 µM
MALME-3M melanoma
  TGI: > 100 µM
A549 NSCLC
  TGI: > 100 µM
EKVX NSCLC
  TGI: > 100 µM
SN12C renal
  TGI: > 100 µM
MDA-MB-435
  TGI: > 100 µM
NCI-H522 lung
  TGI: 39.6 µM
MCF7 breast
  TGI: > 100 µM
NCI-H460 lung
  TGI: > 100 µM
UACC-257 melanoma
  TGI: > 100 µM
LOX IMVI melanoma
  TGI: > 100 µM
SR leukemia
  TGI: > 100 µM
PC-3 prostate
  TGI: > 100 µM
OVCAR-5 ovarian
  TGI: > 100 µM
786-0 renal
  TGI: > 100 µM
RXF 393 renal
  TGI: > 100 µM
SF-295 CNS
  TGI: > 100 µM
NCI-H226 lung
  TGI: > 100 µM
MDA-N
  TGI: > 100 µM
SF-539 CNS
  TGI: > 100 µM
A498 renal
  TGI: > 100 µM
SNB-19 CNS
  TGI: > 100 µM
TK-10 renal
  TGI: > 100 µM
IGROV1 ovarian
  TGI: > 100 µM
OVCAR-3 ovarian
  TGI: > 100 µM
SK-MEL-5 melanoma
  TGI: > 100 µM
SW-620 colon
  TGI: > 100 µM
OVCAR-4 ovarian
  TGI: > 100 µM
COLO 205 colon
  TGI: > 100 µM
UACC-62 melanoma
  TGI: > 100 µM
CCRF-CEM leukemia
  TGI: > 100 µM
SK-MEL-28 melanoma
  TGI: > 100 µM
MOLT-4 leukemia
  TGI: > 100 µM
K-562 leukemia
  TGI: > 100 µM
NCI-H23 lung
  TGI: > 100 µM
HOP-62 NSCLC
  TGI: > 79.6 µM
OVCAR-8 ovarian
  TGI: > 100 µM
HL-60(TB) leukemia
  TGI: 7.25 µM
DU-145 prostate
  TGI: > 100 µM
MDA-MB-231 breast
  TGI: > 100 µM
SF-268 CNS
  TGI: > 100 µM
NCI/ADR-RES ovarian
  TGI: > 100 µM
SNB-75 CNS
  TGI: > 100 µM
HOP-92 NSCLC
  TGI: > 100 µM
BT-549 breast
  TGI: > 100 µM
HCC-2998 colon
  TGI: > 100 µM
KM12 colon
  TGI: > 100 µM
U251 CNS
  TGI: > 100 µM
CAKI-1 renal
  TGI: > 100 µM
SK-OV-3 ovarian
  TGI: > 100 µM
